Consider 13 compounds from patent US5482975A, “Adenosine diphosphoribose polymerase binding nitroso aromatic compounds useful as retroviral inactivating agents, anti-retroviral agents and anti-tumor agents” (priority 1993, dated 1996).

One data set concerns ADPRT. Conditions: cited from earlier work.
The next data set deals with T1, calf thymus ADPRT (Bos taurus, UniProt P18493).
T1 construct: from tissue; host or cells: calf thymus
Nature of the data set: ADPRT polymerase activity inhibition / inactivation. The class given is biochemical. The protocol: | Polymerization at 25° C. for 4 minutes.

The subject of another data set is anti-tumor and anti-HIV. Nature of the data set: biological action of nitroso compounds (anti-tumor and anti-HIV, summary). In kind it is cell-based. Conditions: for anti-tumor and anti-HIV activity: effective even after exposure of cells as short as 30 minutes.
In data set [1] the test system is human leukemia cell lines (855-2, H9, HL-60, K562). Nature of the data set: [3H] thymidine uptake, human leukemia cell lines together. Particulars: 10 μM; each of the cell lines tested. The class given is cell-based.
Another data set relates to H9 cells. Nature of the data set: [3H] thymidine uptake, H9 cells (FIG. 2B). Conditions: 10% FCS. The class given is cell-based, human.
A further data set has as its system K562 cells. As to the kind of experiment: [3H] thymidine uptake, K562 cells (FIG. 2D). The class given is cell-based, human. Conditions: 10% fetal bovine serum.
The subject of data set [2] is 855-2 cells. As to the kind of experiment: [3H] thymidine uptake / growth, 855-2 cells (FIG. 2A, E, F; FIG. 3). The class given is cell-based, human. Particulars: for relative inhibition: 1 μM; for relative inhibition / inhibition / inhibitory effects with different growth factors: 10% fetal bovine serum; for inhibitory effects with different growth factors: AGF or BCGF. As to the method: FIGS. 2A-2F are a composite of graphs displaying the inhibitory effects of the ADRPT ligands on (FIG. 2A) 855-2 cells (a cell line of human B-cell lineage acute lymphoblastic leukemia), (FIG. 2B) H9 cells (a cell line of human T-cell lineage acute lymphoblastic leukemia), FIG. (2C) HL-60 cells (a cell line of human acute nonlymphoblastic leukemia) and (FIG. 2D) K562 cells (a cell line of human chronic myelogenous leukemia). These cells were cultured while under the influence of the growth factors in 10% fetal bovine serum (FCS), whereas in (FIG. 2E) and (FIG. 2F) the 855-2 cells were cultured in the presence of autocrine growth factor activity (AGF) or low molecular weight-B-cell growth factor (BCGF, a T-cell derived lymphokine), respectively.
Experiments using HL-60 cells (FIG. 2C) provided similar conclusions.
855-2 cells that were grown in media with (1) 10% fetal bovine serum, (2) autocrine growth factor (AGF) and (3) low molecular weight-BCGF (a T cell derived lymphokine) were exposed to increasing concentrations of the ADRPT ligands.

The next data set relates to HIV-1. Nature of the data set: inhibition of HIV infection, virus titer in stimulated human lymphoblasts. In kind it is cell-based. Conditions: 30 min exposure, day 10, virus alone 5.25. The protocol:
VIII. Anti-HIV action of NOBP, NOBA and NOQ on stimulated human lymphoblasts.
Exposure to the two drugs was only for 30 minutes at the commencement of viral infection, and drugs were never re-added. The results given in Table III provide the ID50 of HIV titer 10 days after infection of cell cultures with HIV.

The test system of data set [3] is 855-2 cells. Nature of the data set: cytocidal activity, MTT assay. The class given is cell-based, human. Particulars: 10 μM; 100,000 cells/ml. As to the method:
MTT (3-[4,5-[…]]-2,5-diphenyltetrazolium bromide) at 1 mg/ml was then added for 16 hours. The absorbance of the pelleted cell was then measured at 550 nm after adding DMSO to solubilze the cells.
Background: Formazan colour is commonly taken as a measure of viable cells.

In the next data set the target is Zn(HIV1-F1) (Human immunodeficiency virus type 1 lw12.3 isolate, UniProt Q70622). Conditions: cited from earlier work.
The subject of data set [4] is normal rhesus bone marrow stem cells. Nature of the data set: CFU stem cell toxicity assay (FIG. 5A).
Data set [5] deals with various cancer cells (855-2, HL-60, D32, D37, CRL 7712, 186 medulla, L1210, MDA-468). Nature of the data set: functions of various cancer cells in presence of compounds (FIGS. 4-9). In kind it is cell-based. Conditions: summary statement.
Procedure: (§1) Experiments were performed in which the functions of various cancer cells (855-2 and HL-60 leukemia cells, D32, D37 and CRL 7712 glioblastoma cell lines, 186 medulla tumor cell line, L1210 murine leukemia cell line, MDA-468 human breast tumor cell line) and normal cells (neutrophil leukocytes and bone marrow or peripheral blood stream cells) were assessed in the absence or presence of the compounds.
The conditions of data set [6]: not told.
For the next data set, the system named is 855-2 leukemia cells. As to the kind of experiment: growth inhibition of 855-2 cells, comparison with vincristine (FIG. 7). The class given is cell-based, human. As to the method:
Vincristine, a highly toxic chemotherapeutic compound, is currently used in the treatment of leukemia and other malignancies. […] Vincristine was tested in doses of 0.1, 1, 10 and 100 μM.

Data set [7] deals with 855-2 cells. As to the kind of experiment: colony formation (CFU) of leukemic cells in semi-solid medium (FIG. 4). The class given is cell-based, human.
Procedure: as §1
In the next data set the test system is HL-60 cells. Described as above. The class given is cell-based, human.
For data set [8], the system named is normal cells (neutrophil leukocytes and bone marrow or peripheral blood cells).
Procedure: as §1
For a further data set, the system named is Human Neutrophils. Nature of the data set: superoxide generation by human neutrophils. Conditions: 10 μM; mean + S.D., n = 11; PMN + PMA.

T1 sequence (P18493 whole entry): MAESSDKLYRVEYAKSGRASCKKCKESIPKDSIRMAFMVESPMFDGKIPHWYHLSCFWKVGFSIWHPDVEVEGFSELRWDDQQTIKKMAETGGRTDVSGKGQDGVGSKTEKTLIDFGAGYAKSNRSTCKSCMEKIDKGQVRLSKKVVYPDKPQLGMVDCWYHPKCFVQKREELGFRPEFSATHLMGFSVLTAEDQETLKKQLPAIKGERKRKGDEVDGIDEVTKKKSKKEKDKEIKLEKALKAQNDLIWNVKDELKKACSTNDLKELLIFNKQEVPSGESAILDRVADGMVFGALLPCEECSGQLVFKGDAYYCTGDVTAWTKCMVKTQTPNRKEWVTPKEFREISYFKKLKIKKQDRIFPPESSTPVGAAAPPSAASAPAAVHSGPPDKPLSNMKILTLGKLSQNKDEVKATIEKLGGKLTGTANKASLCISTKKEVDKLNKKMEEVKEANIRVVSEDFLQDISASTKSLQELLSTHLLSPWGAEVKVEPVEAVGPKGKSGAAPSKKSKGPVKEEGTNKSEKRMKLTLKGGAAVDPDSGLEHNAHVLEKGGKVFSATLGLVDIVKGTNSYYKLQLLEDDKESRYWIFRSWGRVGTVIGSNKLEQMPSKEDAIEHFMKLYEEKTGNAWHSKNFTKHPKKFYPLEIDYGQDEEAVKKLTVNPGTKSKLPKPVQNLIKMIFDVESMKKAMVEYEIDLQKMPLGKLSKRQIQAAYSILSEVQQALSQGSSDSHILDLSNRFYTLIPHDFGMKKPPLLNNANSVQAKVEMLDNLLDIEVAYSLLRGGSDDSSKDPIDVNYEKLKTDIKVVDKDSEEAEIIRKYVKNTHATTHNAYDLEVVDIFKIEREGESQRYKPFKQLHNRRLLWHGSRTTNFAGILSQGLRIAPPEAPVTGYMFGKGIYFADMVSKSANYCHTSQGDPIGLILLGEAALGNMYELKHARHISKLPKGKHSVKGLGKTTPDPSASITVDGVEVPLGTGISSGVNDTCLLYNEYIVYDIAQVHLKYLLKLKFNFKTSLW
Procedure for HL-60 cells: as §1

Regarding `O=c1ccc2ccccc2o1` [coumarin, 1,2-benzopyrone], in the data set with ADPRT, the “ADPRT binding” value is “inhibitory ligand” and the “ADPRT polymerase activity inhibition” value is “known to inhibit ADPRT polymerase activity”.
In the case of 5(7)-nitroso-1(2H)-isoquinolinone [NOQ], the IC50 at calf thymus ADPRT (25° C., 4 minutes, pH 7.5, read-out: I50 (concentration that inhibits ADPRT enzyme activity 50%)) worked out at 13 µM. Further, in the data set with anti-tumor and anti-HIV, the “anti-tumor and anti-HIV activity” value is on record as “highly active”. In [1], the “inhibition of 3H-thymidine uptake” value was “powerfully inhibited”. Besides, the “inhibition of thymidine uptake” value in the data set with H9 cells (10 μM) is reported as “almost complete inhibition”. Further, the “relative potency” value with H9 cells is on record as “most potent inhibitor”. The “inhibition of cell growth” value with K562 cells (10 μM) is reported as “almost complete inhibition”. For the same compound, in the data set on K562 cells, the “relative potency” value is reported as “most potent inhibitors”. Further, in the data set with 855-2 cells [2], the “relative inhibition” value is “somewhat more inhibition than NOBP” and the “inhibitory effects with different growth factors” value is “potent inhibitory effects”. The “inhibition” value with 855-2 cells [2] (10 μM) was “almost complete inhibition”. For the same compound, the “Virus Titer (log ID50)” value in the data set on HIV-1 (10 μM) was determined as 1.73 log ID50. In addition, in the data set on 855-2 cells [3], the “cell killing” value is on record as “complete killing”.
In the case of 3-aminonaphthylhydrazide, in the data set on ADPRT, the “ADPRT polymerase activity inhibition” value is “known to inhibit ADPRT polymerase activity”.
As to `O=C(O)CN(CCN(CC(=O)O)CC(=O)O)CC(=O)O` [EDTA], the “molar excess required to remove zinc from Zn(HIV1-F1)” value at Zn(HIV1-F1) is reported as 10 fold.
For the compound `NC(=O)c1ccccc1` [benzamide], the “ADPRT polymerase activity inhibition” value with ADPRT is reported as “known to inhibit ADPRT polymerase activity”.
With `Nc1ccc2oc(=O)ccc2c1` [ABP, 6-amino-1,2-benzopyrone], in the data set on HIV-1 (500 μM), the “Virus Titer (log ID50)” value amounted to 4.50 log ID50. Besides, the “ADPRT binding” value with ADPRT is “binds specifically to ADRPT at the site that also binds to DNA”. Besides, in data set [4] (1 μM), the “CFU stem cell toxicity” value is listed as “toxic”.
Regarding `Nc1ccc2oc(=O)ccc2c1I` [IABP, 5-iodo-6-amino-1,2-benzopyrone], in the data set on HIV-1 (250 μM), the “Virus Titer (log ID50)” value is recorded as 4.66 log ID50. Besides, the “ADPRT polymerase activity inhibition” value with ADPRT is given as “known ADPRT polymerase activity inhibitors”. Further, the “CFU stem cell toxicity” value in [4] (250 μM) is reported as “toxic”.
Consider `O=c1ccc2cc([N+](=O)[O-])ccc2o1` [NO2 BP, 6-nitro-1,2-benzopyrone, reference compound], for which the “effectiveness against tumor cells” value in data set [5] was “almost ineffective”. Besides, the “Virus Titer (log ID50)” value in the data set with HIV-1 (250 μM) was determined as 4.93 log ID50.
Consider `O=Nc1ccc2oc(=O)ccc2c1I` [compound 6, 5-iodo-6-nitroso-1,2-benzopyrone, reference compound], for which, at calf thymus ADPRT, the “inhibition of ADPRT” value is reported as “relatively poor inhibitor”. For the same compound, the “biological action, times weaker than 6-N-1,2-benzopyrone” value in the data set on anti-tumor and anti-HIV (relative to 6-nitroso-1,2-benzopyrone) is on record as 10 times. For the same compound, in [6], the permeation result was “poor permeant molecule”.
`CC[C@]1(O)C[C@H]2CN(CCc3c([nH]c4ccccc34)[C@@](C(=O)OC)(c3cc4c(cc3OC)N(C=O)[C@H]3[C@@](O)(C(=O)OC)[C@H](OC(C)=O)[C@]5(CC)C=CCN6CC[C@]43[C@@H]65)C2)C1` [vincristine, reference compound]: the “concentration required for same growth inhibition as 10 μM NOBP” value with 855-2 leukemia cells (in vitro) is 100 µM.
With `O=Nc1ccc2oc(=O)ccc2c1` [NOBP, 6-nitroso-1,2-benzopyrone], the “anti-tumor and anti-HIV activity” value with anti-tumor and anti-HIV was “highly active”. In addition, the “inhibition of 3H-thymidine uptake” value in data set [1] is “powerfully inhibited”. The “inhibition of thymidine uptake” value in the data set with H9 cells (100 μM) is recorded as “almost complete inhibition”. The “inhibition of cell growth” value in the data set with K562 cells (10 μM) is “almost complete inhibition”. Further, the “inhibition of cell growth” value in the data set on K562 cells (100 μM) is listed as “almost complete inhibition”. Further, the “relative potency” value in the data set with K562 cells is recorded as “most potent inhibitors”. Further, in the data set on 855-2 cells [2], the “relative inhibition” value is reported as “somewhat more inhibition than NOBA” and the “inhibitory effects with different growth factors” value is “potent inhibitory effects”. Besides, the “growth arrest in increasing FCS” value in the data set on 855-2 cells [2] (10 μM, increasing FCS concentrations) is recorded as “Growth arrest occurs irrespective of the concentration of FCS”. Moreover, in the data set with 855-2 cells [2] (10 μM), the “inhibition” value was “almost complete inhibition”. In addition, the “effectiveness against tumor cells” value in data set [5] is on record as “highly effective”. Also, in the data set with 855-2 cells [7], the “ability to form colonies (CFU)” value was “inhibit the ability”. The “ability to form colonies (CFU)” value with HL-60 cells is “inhibit the ability”. In addition, the “times more potent than vincristine” value in the data set with 855-2 leukemia cells (equal concentration) is listed as “about 10 times”. In addition, the “Virus Titer (log ID50)” value in the data set with HIV-1 (10 μM) was found to be 2.01 log ID50. Moreover, the “cell killing” value in the data set with 855-2 cells [3] is given as “complete killing”. Further, in data set [8], the “effect on colony formation by normal cells” value is recorded as “minimal effect on normal cells”, the “effect on viability of normal cells” value is on record as “not to affect adversely the viability of normal cells” and the “toxicity to normal cells” value is on record as “not toxic to normal cells”. In addition, the “Generation of Superoxide by Human Neutrophils” value in the data set on Human Neutrophils came out at 34.1 ± 14.1 nmol 02^- /hr/10^5 cells.
With `O=c1c(O)c(-c2ccc(O)c(O)c2)oc2cc(O)cc(O)c12` [quercetin], the “ADPRT polymerase activity inhibition” value with ADPRT is “known to inhibit ADPRT polymerase activity”.
Regarding `c1ccc2cnccc2c1` [isoquinoline], the “ADPRT polymerase activity inhibition” value in the data set with ADPRT is “known to inhibit ADPRT polymerase activity”.
